Source: PubChem BioAssay (NCI)
Several values for one entry are separate records, joined by “and”; a condition that tells them apart may be missing. Equal entries are not always repeated.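 Method: 48-hour compound exposure of cells in 96-well plates, five concentrations, linear interpolation of endpoints. GI50 = concentration required for 50% inhibition of growth. Definition used: TGI = concentration required for complete inhibition of growth.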

Tests used:
Assay in all cases: inhibition of tumour cell growth, NCI panel, 48 h
HCT-116 colon = tested on: HCT-116 colon
NCI-H226 lung = tested on: NCI-H226 lung
SF-268 CNS = tested on: SF-268 CNS
SF-295 CNS = tested on: SF-295 CNS
SF-539 CNS = tested on: SF-539 CNS
SN12C renal = tested on: SN12C renal
SNB-75 CNS = tested on: SNB-75 CNS
U251 CNS = tested on: U251 CNS
BT-549 breast = tested on: BT-549 breast
MCF7 breast = tested on: MCF7 breast

Row | Structure (SMILES) | TGI (HCT-116 colon) | TGI (NCI-H226 lung) [µM] | TGI (SF-268 CNS) | TGI (SF-295 CNS) | TGI (SF-539 CNS) | TGI (SN12C renal) | TGI (SNB-75 CNS) [µM] | TGI (U251 CNS) | GI50 (BT-549 breast) [µM] | TGI (BT-549 breast) [µM] | GI50 (HCT-116 colon) [µM] | GI50 (MCF7 breast) [µM] | TGI (MCF7 breast) | GI50 (SF-268 CNS) [µM] | GI50 (SF-295 CNS) [µM] | GI50 (SF-539 CNS) [µM] | GI50 (SN12C renal) [µM] | GI50 (SNB-75 CNS) [µM] | GI50 (U251 CNS) [µM] | GI50 (NCI-H226 lung) [µM]
1 | CNC(=O)NCCN1N=C(C)/C(=C\c2ccccc2)CC1=O | > 100 µM | > 100 | > 100 µM | > 100 µM | > 100 µM | > 100 µM | > 100 | > 100 µM | – | – | – | – | – | – | – | – | – | – | – | –
2 | CCOP(=O)(OCC)C(NC(c1ccccc1)c1ccccc1)c1ccc(C(C)C)cc1 (stereo unspecified) | 11.3 µM | – | 69.5 µM | 11.7 µM | 30 µM | 16.8 µM | 25.9 | 13.9 µM | 6.8 | 28.9 | 3.08 | 3.06 | 11.4 µM | 7.93 | 2.92 | 13.1 | 4.65 | 5.28 | 3.63 | –
3 | O=C(c1ccc(Nc2nccc(NCCCCNc3ccnc4cc(Cl)ccc34)n2)cc1)N1CCCCC1 | 2.42 µM | 13.7 | 8.31 µM | 3.33 µM | – | 9.29 µM | 3.35 | 3.38 µM | 1.75 | 3.42 | 1.01 | 1.83 | 7.64 µM | 2.36 | 1.54 | – | 2.38 | 1.58 | 1.53 | 3.59
4 | CCCCNCCCCCNc1cc(OC)cc2cccnc12 | 26.6 µM | 64.5 | > 100 µM | 84.9 µM | 34 µM | > 100 µM | – | > 100 µM | 14.5 | 28.8 | 13.6 | > 100 | > 100 µM | > 100 | 28.4 | 18.3 | 36.5 | – | 42.6 | 23.8
5 | Cc1cc(OCc2nn(CN3CCN(C)CC3)c(=S)n2/N=C/c2ccc(F)cc2)ccc1Cl | 32.3 µM | 33.6 | 38 µM | 36.6 µM | 40.1 µM | 31 µM | 32.2 | – | 17.6 | 32.7 | 17.8 | 18.4 | 34.4 µM | 19.6 | 17.9 | 19.3 | 16.9 | 13.4 | – | 17.7
6 | COc1ccc(NC(=O)c2cccc(C3CCc4c(cc(OC)c(OC)c4OC)O3)c2)cc1 (stereo unspecified) | > 100 µM | – | > 100 µM | – | 7.01 µM | > 100 µM | – | > 100 µM | 2.83 | > 100 | 3.65 | 3.11 | > 100 µM | 5.13 | – | 2.52 | 3.7 | – | 3.4 | –
7 | CC[P+]1(c2ccccc2)CCCCC1 | > 100 µM | > 100 | > 100 µM | > 100 µM | > 100 µM | > 100 µM | > 100 | > 100 µM | – | – | – | – | – | – | – | – | – | – | – | –
8 | C=CCC1C(=O)CC2(C)C(CC=C)C(=O)CC12C (stereo unspecified) | > 100 µM | > 100 | – | > 100 µM | > 100 µM | > 100 µM | > 100 | > 100 µM | – | – | – | – | – | – | – | – | – | – | – | –
9 | O=C1CCc2ccc(O)c(c2)Oc2ccc(cc2)[C@@H]2O[C@@H]2CO1 | > 100 µM | > 100 | – | > 100 µM | > 100 µM | > 100 µM | > 100 | > 100 µM | – | – | – | – | – | – | – | – | – | – | – | –
10 | Cc1ccc(/C(=C/C=C(C#N)C#N)Sc2nc3ccccc3s2)cc1 | 6.3 µM | 8.01 | 22.1 µM | 21 µM | 20.8 µM | 4.55 µM | – | – | 0.793 | 3.65 | 2.47 | 4.3 | 32.7 µM | 5.81 | 5.77 | 4.77 | 1.98 | – | – | 3.5
11 | N#CC1=C(c2ccccc2)OC2(N)OC(c3ccccc3)=C(C#N)C12C#N (stereo unspecified) | – | – | > 100 µM | > 100 µM | > 100 µM | > 100 µM | > 100 | > 100 µM | – | – | – | – | – | – | – | – | – | – | – | –
12 | O=C(O)c1cc(Cl)cc(Cc2cc(Cl)cc(C(=O)O)c2O)c1O | > 100 µM | – | > 100 µM | > 100 µM | > 100 µM | > 100 µM | > 100 | > 100 µM | – | > 100 | – | – | > 100 µM | – | – | – | – | – | – | –
13 | C=C1C(O)C2CC(C)(C)C(=O)C2=C(CC(C)C)C12CC2 (stereo unspecified) | > 100 µM | – | > 100 µM | > 100 µM | > 100 µM | > 100 µM | – | > 100 µM | > 100 | > 100 | > 100 | > 100 | > 100 µM | > 100 | > 100 | > 100 | > 100 | – | > 100 | –
14 | COc1cc(/C=C/c2ccnc3ccccc23)cc(OC)c1OC | 12.1 µM and 18.5 µM | 50.9 | 19.8 µM and 47.6 µM | > 100 µM and 53 µM | 11.5 µM and 23.3 µM | 31 µM and > 100 µM | 5.4 | 44.1 µM and 22.8 µM | – | – | 2.88 | 2.35 | 25.2 µM and > 100 µM | – | 3.12 | – | 4.4 | 1.7 | 3.01 | –
15 | Oc1ccc(/C=N/NC(=S)Nc2cccnc2)nc1 | > 100 µM | > 100 | > 100 µM | > 75.6 µM | 19.6 µM | > 57 µM | 97 | > 67 µM | – | – | – | – | > 39 µM | – | – | – | – | – | – | –
16 | CN(C)CCNC(=O)c1cccc2c1nc(-c1ccncc1)c1ccccc12 | 9.23 µM | 10.5 | 19.7 µM | 15.9 µM | 10.7 µM | 14.8 µM | 15.8 | 17 µM | – | – | – | – | – | – | – | – | – | – | – | –
17 | CC(=N/NC(N)=S)/C(C)=N/NC(N)=S | > 100 µM | > 100 | > 100 µM | – | > 100 µM | > 100 µM | > 100 | – | – | > 100 | – | – | > 100 µM | – | – | – | – | – | – | –
18 | O=C(OCc1ccccc1)n1cccc1 | > 100 µM | > 100 | > 100 µM | > 100 µM | > 100 µM | > 100 µM | > 100 | > 100 µM | – | – | – | – | – | – | – | – | – | – | – | –
19 | CCOC(=O)CCn1cnc(N)n1 | > 100 µM | > 100 | – | > 100 µM | > 100 µM | > 100 µM | > 100 | > 100 µM | – | – | – | – | – | – | – | – | – | – | – | –
20 | Cc1ccc(NC(=O)CCC(=O)C2Cc3ccccc3C2=O)cc1C (stereo unspecified) | > 100 µM | > 100 | > 100 µM | > 100 µM | > 100 µM | > 100 µM | > 100 | > 100 µM | – | – | – | – | – | – | – | – | – | – | – | –
